Assay results published in US7816520B2, “5,6-diphenyl-1,2,4-triazinic dimeric derivatives and the use thereof in the form of sun-protective agents” (Pierre Fabre Dermo-Cosmetique, priority 2004, dated 2010).
Entries after “also recorded” stand apart in the source; their conditions may differ.

Tests used:
Assay type in all cases: physicochemical
[1] = Solubility study in solvents or excipients used in cosmetics; conditions: for Solubilities: Soluble, DMSO: solvent DMSO; for Solubilities: Soluble, Transcutol: solvent Transcutol; for Solubilities: Soluble (solvent in which the compound is soluble): value = solvent; for Solubilities: Insoluble (solvent in which the compound is insoluble): value = solvent named in the Insoluble column
[2] = Spectral distribution in UVA and UVB, 290 nm to 400 nm; conditions: for Spectral distribution (UV bands absorbed): absorption spectra, FIGS. 1-3; for Absorption peaks: range from 290 nm to 400 nm
Excerpt: The products tested are classified according to spectral distribution in UVA and UVB in a range from 290 nm to 400 nm. It is possible to differentiate them according to their spectral distribution: Products with a narrow spectrum: • Products absorbing in the range between 280 nm and 320 nm (UVB) • Products absorbing in the range between 320 nm and 400 nm (UVA) Products with a broad spectrum: • Products absorbing in UVB (280-320 nm) and UVA-II […] • Products covering UVB and UVA (280-400 nm).

[3] = Spectral characteristics: molar extinction coefficient and specific absorbance (UV spectrophotometry in ethyl acetate); conditions: 10 μg/ml; for Maximum molar extinction coefficient UVA / Maximum specific absorbance UVA: UVA band; for Maximum molar extinction coefficient UVB / Maximum specific absorbance UVB: UVB band; for Maximum specific absorbance UVA / Maximum specific absorbance UVB: A1cm^1%; for Wavelength of maximum molar extinction coefficient UVA / Wavelength of maximum molar extinction coefficient UVB / Wavelength of maximum specific absorbance UVA / Wavelength of maximum specific absorbance UVB: the 'at ...' part of the cell
Excerpt: The calculation of the molar extinction coefficient (ε) is made from the Beer-Lambert law:
[formula] Wherein: • A=absorbance • I0=intensity of the incident light • I=intensity of the transmitted light • ε=molar extinction (or molar absorbance) coefficient in M^−1 cm^−1 • l=path length in cm • c=concentration in mol/l
The molar extinction coefficient can be expressed with respect to a given mass of the product. It thus makes it possible to be able to compare the coefficients of extinction between products for the same given quantity. This quantity is 1% by weight. The molar extinction coefficient thus becomes the specific absorbance (A1cm^1%).
It is expressed as follows:
[formula] Wherein: • A1cm^1%=specific absorbance • ε=molar extinction coefficient • M=molar mass
The spectral characteristics of the compounds in comparison with commercial filters at a concentration of 10 μg/ml are summarized in tables 2-1 and 2-2.
Procedure: The products are dissolved in ethyl acetate to a concentration of 10 μg/ml. The spectra are measured using a dual-beam spectrophotometer (Varian CARY 50 Scan) between 290 nm and 400 nm.

[4] = Photostability in solution in a chemical solvent (Suntest CPS+); conditions: 25 μg deposited from methanol, absorbance vs non-irradiated control, in % (unit assumed); for Photostability at 5 MED, mean: Suntest irradiation 5 MED; for Photostability at 10 MED, mean: Suntest irradiation 10 MED
Excerpt: A Suntest CPS+(Atlas, Linsengenicht/Altenhasslan, Germany) was used. The Suntest makes it possible to reproduce the solar spectrum and thus to carry out exposures inside at any time without weather constraints.
The radiance of the solar simulator was carefully measured with a spectroradiometer (MSS 2044, Bielefeld, Germany). UVB and UVA intensities were 0.49 mW/cm^2 and 6.32 mW/cm^2, respectively. The MED value defined by COLIPA is 5.6 J/cm^2 in total UV (22). The UV total (UVA+UVB) accounts for 14.8% of the energy delivered by the lamp (power 460 W/m^2). An irradiation dose equivalent to 1 MED corresponds to 37.83 J/cm^2 (in total spectrum) delivered by the lamp.
The Suntest test duration is calculated using the following formula: t=H/E with: • E=illumination energy in W/m^2 • H=irradiation dose in J/m^2 • t=duration of the test in s
The solutions of the compounds are prepared at a concentration of 500 μg/ml in methanol. 50 μl (25 μg) of each solution are deposited in a crystallizer, then irradiated in the Suntest at 5, 10 and/or 20 MED. A non-irradiated control is prepared (deposit of 50 μl of solution and addition of 2.450 ml of methanol). The solvent evaporates during irradiation and the products are taken up in 2.5 ml of methanol. After irradiation, the absorbance of each solution is measured with the UV-visible spectrophotometer (Varian CARY 50 Scan).

With “1,4-bis[5,6-(4,4′-(2-{2-[2-(2-methoxy-ethoxy)-ethoxy]-ethoxy}-ethoxy)-)-diphenyl-1,2,4-triazin-3-yl]benzene [WP41]” the “Solubilities: Soluble, DMSO” value [1] was “DMSO 2.7%”, the “Solubilities: Soluble, Transcutol” value [1] was “Transcutol 0.1%” and the “Solubilities: Soluble (solvent in which the compound is soluble)” value [1] was “DMC and AcOEt (PS) and MeOH (PS)”. The “Solubilities: Insoluble (solvent in which the compound is insoluble)” value (from here on “Solubilities: Insoluble”) [1] was “EtOH and Hexane and Myritol”, the “Spectral distribution (UV bands absorbed)” value (“Spectral distribution” below) [2] was “absorb in UVB and UVA” and the “Maximum molar extinction coefficient UVA” value [3] was 91400 M⁻¹ cm⁻¹. The “Maximum molar extinction coefficient UVB” value [3] was 72000 M⁻¹ cm⁻¹, the “Maximum specific absorbance UVA” value [3] was 669 and the “Maximum specific absorbance UVB” value [3] was 527. The “Wavelength of maximum molar extinction coefficient UVA” value [3] was “at 330 nm”, the “Wavelength of maximum molar extinction coefficient UVB” value [3] was “at 305 nm” and the “Wavelength of maximum specific absorbance UVA” value [3] was “at 330 nm”. The “Wavelength of maximum specific absorbance UVB” value [3] was “at 305 nm”.
In the case of `c1ccc(-c2nnc(-c3ccc(-c4nnc(-c5ccccc5)c(-c5ccccc5)n4)cc3)nc2-c2ccccc2)cc1` [WP30, 1,4-bis(5,6-diphenyl-1,2,4-triazin-3-yl)benzene], the “Solubilities: Soluble (solvent in which the compound is soluble)” value [1] is reported as “DMSO or hot DMF; also recorded: Ethyl acetate (PS)”, the “Solubilities: Insoluble” value [1] is reported as “Acetonitrile and Benzene and Myritol and Transcutol and Water and MeOH and CHCl3 and Acetone” and the “Spectral distribution” value [2] is reported as “absorb in UVB and UVA”. For the same compound, the Absorption peaks [2] was 325 nm, the “Maximum molar extinction coefficient UVA” value [3] was 50200 M⁻¹ cm⁻¹ and the “Maximum specific absorbance UVA” value [3] was 928. For the same compound, the “Wavelength of maximum molar extinction coefficient UVA” value [3] was “at 325 nm”, the “Wavelength of maximum specific absorbance UVA” value [3] was “at 325 nm” and the “Photostability at 5 MED, mean” value [4] was 77.75. For the same compound, the “Photostability at 10 MED, mean” value [4] was 56.12.
In the case of `Oc1ccc(-c2nnc(-c3ccc(-c4nnc(-c5ccc(O)cc5)c(-c5ccc(O)cc5)n4)cc3)nc2-c2ccc(O)cc2)cc1` [WP35, 1,4-bis[5,6-(4,4′-dihydroxy)-diphenyl-1,2,4-triazin-3-yl]benzene], the “Solubilities: Soluble, DMSO” value [1] is reported as “DMSO 3.5%”, the “Solubilities: Soluble, Transcutol” value [1] is reported as “Transcutol 0.5%” and the “Solubilities: Insoluble” value [1] is reported as “MeOH and CHCl3 and Ethyl acetate and Hexane and Myritol”. For the same compound, the “Spectral distribution” value [2] was “absorb in UVB and UVA”, the Absorption peaks [2] was 355 nm and the “Maximum molar extinction coefficient UVA” value [3] was 27800 M⁻¹ cm⁻¹. For the same compound, the “Maximum molar extinction coefficient UVB” value [3] was 29600 M⁻¹ cm⁻¹, the “Maximum specific absorbance UVA” value [3] was 460 and the “Maximum specific absorbance UVB” value [3] was 490. The “Wavelength of maximum molar extinction coefficient UVA” value [3] was “at 355 nm”, the “Wavelength of maximum molar extinction coefficient UVB” value [3] was “at 310 nm” and the “Wavelength of maximum specific absorbance UVA” value [3] was “at 355 nm”. The “Wavelength of maximum specific absorbance UVB” value [3] was “at 310 nm”.
For `CCCCCCCCCCCCCCCCCCOc1ccc(-c2nnc(-c3ccc(-c4nnc(-c5ccc(OCCCCCCCCCCCCCCCCCC)cc5)c(-c5ccc(OCCCCCCCCCCCCCCCCCC)cc5)n4)cc3)nc2-c2ccc(OCCCCCCCCCCCCCCCCCC)cc2)cc1` [WP38, 1,4-bis[5,6-(4,4′-di-octadecyloxy)-diphenyl-1,2,4-triazin-3-yl]benzene], the “Solubilities: Soluble (solvent in which the compound is soluble)” value [1] was “Benzene; also recorded: Toluene; also recorded: Myritol; also recorded: Transcutol” and the “Solubilities: Insoluble” value [1] was “MeOH and DMC and AcOEt”.
With `Cc1ccc(-c2nnc(-c3ccc(-c4nnc(-c5ccc(C)cc5)c(-c5ccc(C)cc5)n4)cc3)nc2-c2ccc(C)cc2)cc1` [WP39, 1,4-bis[5,6-(4,4′-dimethyl)-diphenyl-1,2,4-triazin-3-yl]benzene] the “Solubilities: Soluble (solvent in which the compound is soluble)” value [1] was “DMSO or hot DMF”, the “Solubilities: Insoluble” value [1] was “Water and MeOH and CHCl3 and Acetone and Acetonitrile and Benzene” and the “Spectral distribution” value [2] was “absorb in UVB and UVA”. For the same compound, the “Maximum molar extinction coefficient UVA” value [3] was 48200 M⁻¹ cm⁻¹, the “Maximum specific absorbance UVA” value [3] was 808 and the “Wavelength of maximum molar extinction coefficient UVA” value [3] was “at 335 nm”. The “Wavelength of maximum specific absorbance UVA” value [3] was “at 335 nm”.
For `COc1ccc(-c2nnc(-c3ccc(-c4nnc(-c5ccc(OC)cc5)c(-c5ccc(OC)cc5)n4)cc3)nc2-c2ccc(OC)cc2)cc1` [WP40, 1,4-bis[5,6-(4,4′-dimethoxy)-diphenyl-1,2,4-triazin-3-yl]benzene], the “Solubilities: Soluble (solvent in which the compound is soluble)” value [1] was “DMSO or hot DMF” and the “Solubilities: Insoluble” value [1] was “Water and MeOH and CHCl3 and Acetone and Acetonitrile and Benzene”.
In the case of `Brc1ccc(-c2nnc(-c3ccc(-c4nnc(-c5ccc(Br)cc5)c(-c5ccc(Br)cc5)n4)cc3)nc2-c2ccc(Br)cc2)cc1` [WP52, 1,4-bis[5,6-(4,4′-dibromo)-diphenyl-1,2,4-triazin-3-yl]benzene], the “Solubilities: Soluble (solvent in which the compound is soluble)” value [1] is reported as “DMSO or hot DMF”, the “Solubilities: Insoluble” value [1] is reported as “Water and MeOH and CHCl3 and Acetone and Acetonitrile and Benzene and Myritol and Transcutol” and the “Spectral distribution” value [2] is reported as “absorb in UVB and UVA”. For the same compound, the Absorption peaks [2] was 330 nm, the “Maximum molar extinction coefficient UVA” value [3] was 57300 M⁻¹ cm⁻¹ and the “Maximum specific absorbance UVA” value [3] was 669. The “Wavelength of maximum molar extinction coefficient UVA” value [3] was “at 330 nm” and the “Wavelength of maximum specific absorbance UVA” value [3] was “at 330 nm”.
With `Fc1ccc(-c2nnc(-c3ccc(-c4nnc(-c5ccc(F)cc5)c(-c5ccc(F)cc5)n4)cc3)nc2-c2ccc(F)cc2)cc1` [WP89, 1,4-bis[5,6-(4,4′-difluoro)-diphenyl-1,2,4-triazin-3-yl]benzene] the “Solubilities: Soluble (solvent in which the compound is soluble)” value [1] was “Ethyl acetate”, the “Spectral distribution” value [2] was “absorb in UVB and UVA” and the Absorption peaks [2] was 330 nm. For the same compound, the “Maximum molar extinction coefficient UVA” value [3] was 47700 M⁻¹ cm⁻¹, the “Maximum specific absorbance UVA” value [3] was 778 and the “Wavelength of maximum molar extinction coefficient UVA” value [3] was “at 330 nm”. For the same compound, the “Wavelength of maximum specific absorbance UVA” value [3] was “at 330 nm”.
In the case of `Clc1ccc(-c2nnc(-c3ccc(-c4nnc(-c5ccc(Cl)cc5)c(-c5ccc(Cl)cc5)n4)cc3)nc2-c2ccc(Cl)cc2)cc1` [WP100, 1,4-bis[5,6-(4,4′-dichloro)-diphenyl-1,2,4-triazin-3-yl]benzene], the “Solubilities: Soluble (solvent in which the compound is soluble)” value [1] is reported as “Hot DMSO”, the “Solubilities: Insoluble” value [1] is reported as “DCM and Et2O and Toluene and Octanol and EtOH and Myritol and Transcutol” and the “Spectral distribution” value [2] is reported as “absorb in UVB and UVA”. For the same compound, the Absorption peaks [2] was 300 nm, the “Maximum molar extinction coefficient UVA” value [3] was 43400 M⁻¹ cm⁻¹ and the “Maximum specific absorbance UVA” value [3] was 640. The “Wavelength of maximum molar extinction coefficient UVA” value [3] was “at 300 nm” and the “Wavelength of maximum specific absorbance UVA” value [3] was “at 100 nm”.
With `c1ccc(-c2nnc(-c3ccc(-c4ccc(-c5nnc(-c6ccccc6)c(-c6ccccc6)n5)cc4)cc3)nc2-c2ccccc2)cc1` [WP135] the “Spectral distribution” value [2] was “absorb in UVB and UVA”, the Absorption peaks [2] was 330 nm and the “Maximum molar extinction coefficient UVA” value [3] was 57000 M⁻¹ cm⁻¹. For the same compound, the “Maximum specific absorbance UVA” value [3] was 924, the “Wavelength of maximum molar extinction coefficient UVA” value [3] was “at 330 nm” and the “Wavelength of maximum specific absorbance UVA” value [3] was “at 330 nm”. For the same compound, the “Photostability at 5 MED, mean” value [4] was 57.45 and the “Photostability at 10 MED, mean” value [4] was 33.66.
In the case of `CCCCCC[C@H](C)Oc1ccc(-c2nnc(-c3ccc(-c4nnc(-c5ccc(O[C@@H](C)CCCCCC)cc5)c(-c5ccc(O[C@@H](C)CCCCCC)cc5)n4)cc3)nc2-c2ccc(O[C@@H](C)CCCCCC)cc2)cc1` [WP149, 1,4-bis[5,6-bis(4,1-methylheptyloxyphenyl)-1,2,4-triazine-3-yl]benzene], the “Solubility (%)” value ([1]; excipient Finsol V NT ® (C12-C15 alkyl benzoate)) is reported as 4.5%, the “Solubility (%)” value ([1]; excipient Isopropyl adipate) is reported as 2% and the “Solubility (%)” value ([1]; excipient Myritol 318 ® (caprylic/capric triglycerides)) is reported as 2.5%. For the same compound, the “Photostability at 5 MED, mean” value [4] was 80.40 and the “Photostability at 10 MED, mean” value [4] was 38.16.
